Data from patent publication US12655116B2, “Substituted isophthalic acid diamides” (Bayer Aktiengesellschaft, priority 2020, dated 2026).

Experiments:
[1] = test system: HORMU; test: Pre-emergence herbicidal action against HORMU; type: in vivo, Hordeum murinum; conditions: 80 g/ha, pre-emergence
How it was run: (§1)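 Visual rating at 3 weeks vs untreated pots; 0–100% scale, 100% = plants died. Treatment: aqueous WP/EC spray onto covering soil, 600–800 l/ha, 0.2% wetter, seeds in sandy loam.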

[2] = test system: MATIN; test: Pre-emergence herbicidal action against MATIN; type: in vivo, Matricaria inodora
How it was run: as §1

[3] = test system: STEME; test: Pre-emergence herbicidal action against STEME; type: in vivo, Stellaria media
How it was run: as §1

[4] = test system: AVEFA; test: Pre-emergence herbicidal action against AVEFA; type: in vivo, Avena fatua; conditions: 80 g/ha, pre-emergence
How it was run: as §1

[5] = test system: PHBPU; test: Post-emergence herbicidal action against PHBPU; type: in vivo, Pharbitis purpurea
How it was run: (§2)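 Greenhouse pot plants in sandy loam were sprayed at the one-leaf stage, 2 to 3 weeks after sowing, with WP or EC formulations as aqueous suspension or emulsion (600 to 800 l/ha water, 0.2% wetting agent). About 3 weeks later, damage was scored visually against untreated controls as % action (100% = dead, 0% = like control).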

[6] = test system: ABUTH; test: Post-emergence herbicidal action against ABUTH; type: in vivo, Abutilon theophrasti; conditions: visual assessment about 3 weeks after treatment vs untreated controls
How it was run: as §2

[7] = test system: STEME; test: Post-emergence herbicidal action against STEME; type: in vivo, Stellaria media
How it was run: as §2

[8] = test system: HORMU; test: Post-emergence herbicidal action against HORMU; type: in vivo, Hordeum murinum; conditions: dosage 20 g/ha
How it was run: as §2

[9] = test system: PHBPU; test: Pre-emergence herbicidal action against PHBPU; type: in vivo, Pharbitis purpurea; conditions: dosage 80 g/ha
How it was run: as §1

[10] = test system: VIOTR; test: Post-emergence herbicidal action against VIOTR; type: in vivo, Viola tricolor
How it was run: as §2

[11] = test system: ALOMY; test: Post-emergence herbicidal action against ALOMY; type: in vivo, Alopecurus myosuroides; conditions: dosage 20 g/ha, visual assessment about 3 weeks after treatment vs untreated controls
How it was run: as §2

[12] = test system: SETVI; test: Pre-emergence herbicidal action against SETVI; type: in vivo, Setaria viridis; conditions: dosage 80 g/ha
How it was run: as §1

[13] = test system: AMARE; test: Pre-emergence herbicidal action against AMARE; type: in vivo, Amaranthus retroflexus
How it was run: as §1

[14] = test system: VERPE; test: Post-emergence herbicidal action against VERPE; type: in vivo, Veronica persica
How it was run: as §2

[15] = test system: MATIN; test: Post-emergence herbicidal action against MATIN; type: in vivo, Matricaria inodora
How it was run: as §2

[16] = test system: VIOTR; test: Pre-emergence herbicidal action against VIOTR; type: in vivo, Viola tricolor
How it was run: as §1

[17] = test system: ECHCG; test: Pre-emergence herbicidal action against ECHCG; type: in vivo, Echinochloa crus-galli
How it was run: as §1

[18] = test system: ABUTH; test: Pre-emergence herbicidal action against ABUTH; type: in vivo, Abutilon theophrasti; conditions: for Pre-emergence action against ABUTH (herbicidal activity): 80 g/ha, scored visually after 3 weeks vs untreated controls (100% = plants have died, 0% = like control plants); for Pre-emergence action against ABUTH (herbicidal activity in percent): dosage 20 g/ha, scored visually after 3 weeks vs untreated controls, 100% = plants have died, 0% = like control plants
How it was run: as §1

[19] = test system: POLCO; test: Pre-emergence herbicidal action against POLCO; type: in vivo, Polygonum convolvulus; conditions: dosage 80 g/ha
How it was run: as §1

[20] = test system: ALOMY; test: Pre-emergence herbicidal action against ALOMY; type: in vivo, Alopecurus myosuroides; conditions: 80 g/ha, pre-emergence, scored visually after 3 weeks vs untreated controls (100% = plants have died, 0% = like control plants)
How it was run: as §1

[21] = test system: VERPE; test: Pre-emergence herbicidal action against VERPE; type: in vivo, Veronica persica; conditions: dosage 80 g/ha
How it was run: as §1

[22] = test system: LOLRI; test: Pre-emergence herbicidal action against LOLRI; type: in vivo, Lolium rigidum; conditions: 80 g/ha
How it was run: as §1

[23] = test system: DIGSA; test: Pre-emergence herbicidal action against DIGSA; type: in vivo, Digitaria sanguinalis
How it was run: as §1

[24] = test system: ECHCG; test: Post-emergence herbicidal action against ECHCG; type: in vivo, Echinochloa crus-galli
How it was run: as §2

[25] = test system: AMARE; test: Post-emergence herbicidal action against AMARE; type: in vivo, Amaranthus retroflexus; conditions: 20 g/ha, visual assessment about 3 weeks after treatment, 100% = plants have died, 0% = like control plants
How it was run: as §2

[26] = test system: DIGSA; test: Post-emergence herbicidal action against DIGSA; type: in vivo, Digitaria sanguinalis
How it was run: as §2

[27] = test system: SETVI; test: Post-emergence herbicidal action against SETVI; type: in vivo, Setaria viridis
How it was run: as §2

[28] = test system: AVEFA; test: Post-emergence herbicidal action against AVEFA; type: in vivo, Avena fatua; conditions: 20 g/ha, visual assessment about 3 weeks after treatment, 100% = plants have died, 0% = like control plants
How it was run: as §2

[29] = 20 g/ha, scored visually after 3 weeks vs untreated controls, 100% = plants have died, 0% = like control plants
[30] = 80 g/ha, scored visually after 3 weeks vs untreated controls (100% = plants have died, 0% = like control plants)

CCn1nnnc1NC(=O)c1ccc(C(F)F)c(C(=O)NC2CC2)c1C [Example 2-46]
Pre-emergence action against HORMU in % [1]: 90%
Pre-emergence action against MATIN in % ([2]; dosage 20 g/ha): 90%
Pre-emergence action against MATIN in % ([2]; dosage 80 g/ha): 100%
Pre-emergence action against STEME in % ([3]; dosage 20 g/ha): 90%
Pre-emergence action against STEME in % ([3]; dosage 80 g/ha): 100%
Pre-emergence action against AVEFA in % [4]: 100%
Post-emergence action against PHBPU in % ([5]; dosage 20 g/ha): 80%
Post-emergence action against ABUTH in % ([6]; dosage 5 g/ha): 80%
Post-emergence action against ABUTH in % ([6]; dosage 20 g/ha): 80%
Post-emergence action against STEME in % ([7]; 20 g/ha): 80%
Post-emergence action against STEME in % ([7]; dosage 5 g/ha): 80%
Post-emergence action against HORMU in % [8]: 80%
Pre-emergence action against PHBPU in % [9]: 90%
Post-emergence action against VIOTR in % ([10]; 5 g/ha): 80%
Post-emergence action against VIOTR in % ([10]; 20 g/ha): 80%
Post-emergence action against ALOMY in % [11]: 80%
Pre-emergence action against SETVI in % [12]: 100%
Pre-emergence action against AMARE in % [13, 29]: 100%
Pre-emergence action against AMARE in % [13, 30]: 100%
Post-emergence action against VERPE in % ([14]; 5 g/ha): 80%
Post-emergence action against VERPE in % ([14]; 20 g/ha): 80%
Post-emergence action against MATIN in % ([15]; dosage 20 g/ha): 80%
Pre-emergence action against VIOTR in % ([16]; dosage 20 g/ha): 100%
Pre-emergence action against VIOTR in % ([16]; dosage 80 g/ha): 100%
Pre-emergence action against ECHCG in % ([17]; 80 g/ha): 90%
Pre-emergence action against ABUTH (herbicidal activity) [18]: 100%
Pre-emergence action against ABUTH (herbicidal activity in percent) [18]: 100%
Pre-emergence action against POLCO in % [19]: 90%
Pre-emergence action against ALOMY (herbicidal activity) [20]: 100%
Pre-emergence action against VERPE in % [21]: 90%
Pre-emergence action against LOLRI in % [22]: 90%
Pre-emergence action against DIGSA in % ([23]; dosage 20 g/ha): 100%
Pre-emergence action against DIGSA in % ([23]; dosage 80 g/ha): 100%
Post-emergence action against ECHCG in % ([24]; dosage 20 g/ha): 80%
Post-emergence action at 20 g/ha against AMARE in % [25]: 100%

CCn1nnnc1NC(=O)c1ccc(C(F)F)c(C(=O)NC)c1SC [Example 2-87]
Pre-emergence action against HORMU in % [1]: 80%
Pre-emergence action against MATIN in % ([2]; dosage 20 g/ha): 90%
Pre-emergence action against MATIN in % ([2]; dosage 80 g/ha): 90%
Pre-emergence action against STEME in % ([3]; dosage 20 g/ha): 100%
Pre-emergence action against STEME in % ([3]; dosage 80 g/ha): 100%
Post-emergence action against DIGSA in % ([26]; 5 g/ha): 90%
Post-emergence action against DIGSA ([26]; 20 g/ha): 90%
Pre-emergence action against AVEFA in % [4]: 90%
Post-emergence action against PHBPU in % ([5]; dosage 5 g/ha): 80%
Post-emergence action against PHBPU in % ([5]; dosage 20 g/ha): 80%
Post-emergence action against ABUTH in % ([6]; dosage 5 g/ha): 90%
Post-emergence action against ABUTH in % ([6]; dosage 20 g/ha): 90%
Post-emergence action against STEME in % ([7]; 20 g/ha): 90%
Post-emergence action against STEME in % ([7]; dosage 5 g/ha): 80%
Post-emergence action against HORMU in % [8]: 80%
Post-emergence action against SETVI in % ([27]; dosage 5 g/ha): 80%
Post-emergence action against SETVI in % ([27]; dosage 20 g/ha): 80%
Pre-emergence action against PHBPU in % [9]: 80%
Post-emergence action against VIOTR in % ([10]; 20 g/ha): 100%
Post-emergence action against ALOMY in % [11]: 80%
Pre-emergence action against SETVI in % [12]: 100%
Pre-emergence action against AMARE in % [13, 29]: 100%
Pre-emergence action against AMARE in % [13, 30]: 100%
Post-emergence action at 20 g/ha against AVEFA in % [28]: 80%
Post-emergence action against VERPE in % ([14]; 20 g/ha): 80%
Post-emergence action against MATIN in % ([15]; dosage 5 g/ha): 80%
Post-emergence action against MATIN in % ([15]; dosage 20 g/ha): 90%
Pre-emergence action against VIOTR in % ([16]; dosage 20 g/ha): 90%
Pre-emergence action against VIOTR in % ([16]; dosage 80 g/ha): 90%
Pre-emergence action against ECHCG in % ([17]; 20 g/ha): 80%
Pre-emergence action against ECHCG in % ([17]; 80 g/ha): 100%
Pre-emergence action against ABUTH (herbicidal activity) [18]: 100%
Pre-emergence action against ABUTH (herbicidal activity in percent) [18]: 100%
Pre-emergence action against ALOMY (herbicidal activity) [20]: 80%
Pre-emergence action against VERPE in % [21]: 90%
Pre-emergence action against LOLRI in % [22]: 80%
Pre-emergence action against DIGSA in % ([23]; dosage 20 g/ha): 100%
Pre-emergence action against DIGSA in % ([23]; dosage 80 g/ha): 100%
Post-emergence action against ECHCG in % ([24]; dosage 5 g/ha): 80%
Post-emergence action against ECHCG in % ([24]; dosage 20 g/ha): 80%
Post-emergence action at 20 g/ha against AMARE in % [25]: 90%
